pKd: −log10 of the molar value. Read-outs that look alike come from different tables or passages of the source. Blank lines part the entries; values can stand above or below the compound they belong to.
Experiments:
CIMPR [1] = target: T1, CIMPR (Homo sapiens, UniProt P11717); test: CIMPR affinity chromatography of rhGAA (bound vs unbound GAA activity); assay type: binding; conditions: for CIMPR binding compared with ATB200 rhGAA: FIGS. 4A, 4B, 7A, 7B; for rhGAA bound to CIMPR / containing M6P (eluted with M6P) / rhGAA that did not bind to the CIMPR (GAA activity eluted prior to addition of M6P): fraction of total enzyme by GAA activity
Method: To evaluate the ability of the rhGAA in Myozyme® and Lumizyme®, the only currently approved treatments for Pompe disease, these rhGAA preparations were injected onto a CIMPR column (which binds rhGAA having M6P groups) and subsequently eluted with a free […] gradient. Fractions were collected in 96-well plate and GAA activity assayed by 4MU-α-glucose substrate. The relative amounts of bound and unbound rhGAA were determined based on GAA activity and reported as the fraction of total enzyme.
Multiple batches of the rhGAA according to the invention were produced in shake flasks and in perfusion bioreactors using CHO cell line GA-ATB-200 and CIMPR binding was measured.

[2] = test system: normal and Pompe fibroblast cell lines; test: Cellular uptake of rhGAA by fibroblasts (16-hr incubation, 4MU-α-Glucoside hydrolysis); assay type: cell-based; conditions: for concentration that saturates cellular receptors: normal and Pompe fibroblasts, 16-hr incubation
Method: The relative cellular uptake of ATB200 and Lumizyme® rhGAA were compared using normal and Pompe fibroblast cell lines. […] After 16-hr incubation, external rhGAA was inactivated with TRIS base and cells were washed 3-times with PBS prior to harvest. Internalized GAA measured by 4MU-α-Glucoside hydrolysis and was graphed relative to total cellular protein and the results appear in FIGS. 13A-13B.

GAA KO mice [3] = test: Muscle function in Gaa-knockout mice, longer-term studies; assay type: in vivo, mouse
[4] = Apparent plasma half-life in vivo
[5] = test system: subjects with Pompe disease; conditions: cited from earlier work
[6] = test system: adults with Pompe disease; test: Phase 1/2 study: safety; assay type: in vivo, human; conditions: no infusion-associated reactions to date
Method: (§1) Mean total GAA protein and miglustat PK results from the first 8 Cohort 1 patients through Visit 9 and the first 2 Cohort 3 patients were assessed.

GAA KO mice [7] = test: Glycogen clearance in GAA KO mice, 4 injections with or without miglustat (FIG. 15); assay type: in vivo, mouse; conditions: rhGAA 20 mg/kg IV every other week, miglustat 10 mg/kg PO 30 min prior where co-administered, 14 days after last dose
Excerpt: Tissues were collected 14 days after last enzyme dose for glycogen measurement.

CIMPR [8] = target: T1, CIMPR; test: CIMPR plate binding assay
Method: In addition to having a greater percentage of rhGAA that can bind to the CIMPR, it is important to understand the quality of that interaction. […] Briefly, CIMPR-coated plates were used to capture GAA. Varying concentrations of rhGAA were applied to the immobilized receptor and unbound rhGAA was washed off. The amount of remaining rhGAA was determined by GAA activity.

[9] = test system: Pompe fibroblasts and skeletal muscle myoblasts; test: Internalization by Pompe fibroblasts and skeletal muscle myoblasts; assay type: cell-based
Gaa knockout mice [10] = test: Muscle physiology and morphology in Gaa-knockout mice; assay type: in vivo, mouse; conditions: rhGAA 20 mg/kg IV every other week; miglustat 10 mg/kg oral 30 mins prior; compared to alglucosidase alfa
Method: Control mice were treated with vehicle alone. Soleus, quadriceps and diaphragm tissue is harvested two weeks after the last dose of recombinant human acid α-glucosidase. […] Semi-thin sections of quadriceps muscle embedded in epoxy resin (Epon) were stained with methylene blue and observed by […] (1000×) to determine the extent of the presence of vacuoles. […] Control mice were treated with vehicle alone. Cardiac muscle tissue was harvested two weeks after the last dose of recombinant human acid α-glucosidase and analyzed for glycogen levels, by staining with periodic acid-Schiff reagent (PAS), and for lysosome proliferation, by measuring levels of LAMP1.

Gaa knockout mice [11] = test: Glycogen reduction in Gaa knockout mice, two IV bolus administrations; assay type: in vivo, mouse
Excerpt: Animals were given two IV bolus administrations (every other week); tissues were harvested two weeks after the last dose and analyzed for acid α-glucosidase activity and glycogen content.

[12] = Phase 1/2 study: plasma total GAA protein pharmacokinetics; parameters: species or system human; conditions: in vivo
[13] = Phase 1/2 study: plasma miglustat pharmacokinetics; assay type: in vivo, human; conditions: for half-life / Vd/F / AUC(0-inf) / AUC(0-t) / Cmax / Tmax: both sexes, human, plasma, po; for half-life / Vd/F / AUC(0-inf) / AUC(0-t) / Cmax / Tmax / CL/F: plasma miglustat; for half-life / Vd/F / CL/F: arithmetic mean; for Vd/F: read-out: Vz/F; for AUC(0-inf) / AUC(0-t) / Cmax: geometric mean; for Tmax: median
Method: as §1

ATB200 = ATB200 (Homo sapiens, UniProt P10253, H199R/R223H/V780I); test: Stabilization of ATB200 by miglustat; conditions: neutral pH of plasma
[14] = 130 mg, Low (about 130 mg oral) MD
[15] = 130 mg, Low (about 130 mg oral) SD
[16] = 260 mg, High (about 260 mg oral) MD
[17] = 260 mg, High (about 260 mg oral) SD

T1 sequence (P11717 41-2491, species assumed): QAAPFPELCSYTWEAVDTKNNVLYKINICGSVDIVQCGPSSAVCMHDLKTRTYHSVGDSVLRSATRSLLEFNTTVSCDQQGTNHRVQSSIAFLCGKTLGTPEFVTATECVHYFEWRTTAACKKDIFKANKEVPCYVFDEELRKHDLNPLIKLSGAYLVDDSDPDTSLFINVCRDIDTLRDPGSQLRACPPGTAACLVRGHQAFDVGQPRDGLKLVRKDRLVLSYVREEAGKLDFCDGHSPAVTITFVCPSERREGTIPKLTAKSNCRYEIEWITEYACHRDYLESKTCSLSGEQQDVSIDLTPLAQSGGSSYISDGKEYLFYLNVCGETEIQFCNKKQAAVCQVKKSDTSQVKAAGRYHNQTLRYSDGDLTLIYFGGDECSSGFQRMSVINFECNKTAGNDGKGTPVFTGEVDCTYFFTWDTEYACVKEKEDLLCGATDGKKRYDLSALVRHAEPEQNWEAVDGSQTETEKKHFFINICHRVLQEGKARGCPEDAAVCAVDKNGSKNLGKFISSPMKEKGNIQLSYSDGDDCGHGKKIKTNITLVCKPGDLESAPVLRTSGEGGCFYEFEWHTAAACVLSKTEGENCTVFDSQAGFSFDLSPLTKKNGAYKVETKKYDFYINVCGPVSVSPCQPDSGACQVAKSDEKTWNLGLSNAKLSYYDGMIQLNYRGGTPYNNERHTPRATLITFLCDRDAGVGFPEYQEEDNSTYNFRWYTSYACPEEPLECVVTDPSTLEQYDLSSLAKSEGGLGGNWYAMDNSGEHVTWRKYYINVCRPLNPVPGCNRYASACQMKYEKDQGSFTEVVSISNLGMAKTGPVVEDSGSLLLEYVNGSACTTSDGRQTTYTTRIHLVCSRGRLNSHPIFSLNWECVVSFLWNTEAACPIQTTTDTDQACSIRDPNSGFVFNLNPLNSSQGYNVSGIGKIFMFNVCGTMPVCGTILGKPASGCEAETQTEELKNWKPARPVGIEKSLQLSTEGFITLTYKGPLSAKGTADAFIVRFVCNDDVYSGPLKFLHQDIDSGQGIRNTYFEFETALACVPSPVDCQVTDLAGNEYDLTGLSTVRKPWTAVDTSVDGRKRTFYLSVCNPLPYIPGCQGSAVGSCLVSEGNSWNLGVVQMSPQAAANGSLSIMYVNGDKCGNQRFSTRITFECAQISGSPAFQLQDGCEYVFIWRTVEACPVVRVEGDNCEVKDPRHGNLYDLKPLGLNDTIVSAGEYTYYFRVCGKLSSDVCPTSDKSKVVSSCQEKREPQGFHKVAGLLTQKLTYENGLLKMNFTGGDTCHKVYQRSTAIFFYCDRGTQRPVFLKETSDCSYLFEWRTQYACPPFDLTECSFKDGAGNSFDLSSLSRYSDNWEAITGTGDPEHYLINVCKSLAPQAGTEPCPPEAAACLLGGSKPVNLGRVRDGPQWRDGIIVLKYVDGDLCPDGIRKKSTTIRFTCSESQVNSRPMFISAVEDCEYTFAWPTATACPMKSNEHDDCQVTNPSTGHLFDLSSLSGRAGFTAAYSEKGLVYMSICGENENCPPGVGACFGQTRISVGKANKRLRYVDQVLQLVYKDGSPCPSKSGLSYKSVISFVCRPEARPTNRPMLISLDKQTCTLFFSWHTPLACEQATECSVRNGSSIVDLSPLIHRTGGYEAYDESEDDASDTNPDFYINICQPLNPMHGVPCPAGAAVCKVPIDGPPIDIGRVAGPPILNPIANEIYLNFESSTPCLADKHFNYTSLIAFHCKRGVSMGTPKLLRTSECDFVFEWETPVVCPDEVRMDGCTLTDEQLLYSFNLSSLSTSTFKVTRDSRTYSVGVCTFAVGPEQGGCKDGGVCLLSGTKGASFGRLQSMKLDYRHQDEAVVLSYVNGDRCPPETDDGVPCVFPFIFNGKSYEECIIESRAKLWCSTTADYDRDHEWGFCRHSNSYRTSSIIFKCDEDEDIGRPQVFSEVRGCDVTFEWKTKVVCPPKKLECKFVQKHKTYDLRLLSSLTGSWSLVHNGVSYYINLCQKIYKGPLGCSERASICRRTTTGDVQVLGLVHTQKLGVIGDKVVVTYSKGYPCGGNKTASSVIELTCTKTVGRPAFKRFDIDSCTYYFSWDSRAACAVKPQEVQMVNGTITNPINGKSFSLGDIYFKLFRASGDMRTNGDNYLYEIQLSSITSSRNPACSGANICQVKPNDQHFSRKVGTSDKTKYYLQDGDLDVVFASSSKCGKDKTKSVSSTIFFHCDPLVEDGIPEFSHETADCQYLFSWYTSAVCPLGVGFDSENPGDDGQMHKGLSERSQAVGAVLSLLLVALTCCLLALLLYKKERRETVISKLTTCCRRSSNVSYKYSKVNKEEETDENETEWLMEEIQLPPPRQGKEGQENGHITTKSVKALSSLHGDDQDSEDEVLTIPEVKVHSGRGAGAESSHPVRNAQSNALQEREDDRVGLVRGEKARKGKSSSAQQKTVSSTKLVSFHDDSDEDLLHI

CIMPR binding compared with ATB200 rhGAA (CIMPR [1]): significantly less CIMPR binding
rhGAA bound to CIMPR / containing M6P (eluted with M6P) (CIMPR [1]): 22%
rhGAA that did not bind to the CIMPR (GAA activity eluted prior to addition of M6P) (CIMPR [1]): 78%
Compound: Lumizyme®: conventional rhGAA product (alglucosidase alfa) marketed by Genzyme
uptake efficiency constant (Kuptake) ([2]; extrapolated from uptake curves, FIG. 13C): 56 nM
concentration that saturates cellular receptors [2]: about 250 nM
functional muscle strength (grip strength and wire hang tests) (GAA KO mice [3]; 12 biweekly administrations, ERT 20 mg/kg, miglustat 10 mg/kg, from baseline): decline

Compound: [199-arginine,223-histidine]prepro-α-glucosidase (human) [alglucosidase alfa]
apparent plasma half-life (t1/2) [4]: ~1 h
survival in infantile onset Pompe disease ([5]; compared to historical controls): significantly improve survival
effect on 6-Minute Walk Test (6MWT) and forced vital capacity (FVC) in late onset Pompe disease ([5]; compared to placebo): statistically significant, if modest, effect

pKd (CIMPR [8]; M6P receptor plate binding assays): 8.40 to 8.70
Compound: ATB200: recombinant human acid α-glucosidase with high M6P content, expressed in CHO cells, described in co-pending application PCT/US2015/053252
apparent plasma half-life (t1/2) [4]: ~0.75 h
safety and tolerability overall [6]: safe and well tolerated
relative reduction of glycogen in quadriceps and triceps skeletal muscle (GAA KO mice [7]): greater reduction of glycogen than Lumizyme®
CIMPR binding compared with Lumizyme® (CIMPR [8]; FIG. 12A): bound to CIMPR significantly better than Lumizyme®
internalization into normal and Pompe fibroblast cells ([2]; compared with Lumizyme® rhGAA): internalized to a greater degree than conventional Lumizyme® rhGAA
concentration that saturates cellular receptors [2]: about 20 nM
Kuptake [9]: 7 to 14 nM
lysosome proliferation (LAMP1) in heart, diaphragm and soleus (Gaa knockout mice [10]): reduction in lysosome proliferation
punctate glycogen levels (PAS) in heart and soleus (Gaa knockout mice [10]): reduction in punctate glycogen levels
depletion of tissue glycogen (Gaa knockout mice [11]; 5, 10 and 20 mg/kg, two IV bolus every other week, tissues two weeks after last dose): dose-dependent fashion
reduction of glycogen levels in skeletal muscles (Gaa knockout mice [11]; 10 and 20 mg/kg, compared to Lumizyme® 20 mg/kg): significantly better reduction of glycogen levels
intracellular accumulation of dystrophin (GAA KO mice [3]; 6 months of administration, comparison with Lumizyme®): lowered intracellular accumulation of dystrophin
volume of distribution (in words) ([12]; human): relatively high volume of distribution
AUC0-∞ ([12]; human, 5 mg/kg): 218 ng·h/mL
AUC(0-t) ([12]; human, 5 mg/kg): 215 ng·h/mL
Cmax ([12]; human, 5 mg/kg): 61 ng/mL
Tmax ([12]; human, 5 mg/kg): 3.8 h
Vss ([12]; human, 5 mg/kg): 4.62 L
αt1/2 ([12]; human, 5 mg/kg): 1.1 h
βt1/2 ([12]; human, 5 mg/kg): 1.9 h
AUC0-∞ ([12]; human, 10 mg/kg): 584 ng·h/mL
AUC(0-t) ([12]; human, 10 mg/kg): 578 ng·h/mL
Tmax ([12]; human, 10 mg/kg): 4.0 h
αt1/2 ([12]; human, 10 mg/kg): 1.6 h
βt1/2 ([12]; human, 10 mg/kg): 1.6 h
AUC0-∞ ([12]; human, 20 mg/kg): 1512 ng·h/mL
AUC(0-t) ([12]; human, 20 mg/kg): 1508 ng·h/mL
Tmax ([12]; human, 20 mg/kg): 4.0 h
αt1/2 ([12]; human, 20 mg/kg): 1.5 h
βt1/2 ([12]; human, 20 mg/kg): 2.1 h
CLT ([12]; 5 mg/kg): 2.1 L/h
CLT ([12]; 10 mg/kg): 1.59 L/h
CLT ([12]; 20 mg/kg): 1.22 L/h

dose proportionality of plasma miglustat ([13]; 130 mg and 260 mg oral): dose-proportional kinetics
half-life [13, 14]: 5.9 h
Vd/F [13, 14]: 86.7 L
AUC(0-inf) [13, 14]: 13100 ng·h/mL
AUC(0-t) [13, 14]: 12300 ng·h/mL
Cmax [13, 14]: 1520 ng/mL
Tmax [13, 14]: 3 h
half-life [13, 15]: 5.6 h
Vd/F [13, 15]: 85.8 L
AUC(0-inf) [13, 15]: 12600 ng·h/mL
AUC(0-t) [13, 15]: 11800 ng·h/mL
Cmax [13, 15]: 1490 ng/mL
Tmax [13, 15]: 3.5 h
half-life [13, 16]: 5.3 h
Vd/F [13, 16]: 81 L
AUC(0-inf) [13, 16]: 26000 ng·h/mL
AUC(0-t) [13, 16]: 25000 ng·h/mL
Cmax [13, 16]: 3570 ng/mL
Tmax [13, 16]: 3 h
half-life [13, 17]: 5.7 h
Vd/F [13, 17]: 86.3 L
AUC(0-inf) [13, 17]: 25900 ng·h/mL
AUC(0-t) [13, 17]: 24000 ng·h/mL
Cmax [13, 17]: 3060 ng/mL
Tmax [13, 17]: 3.5 h
CL/F ([13]; High (about 260 mg oral) MD): 10.3 L/h
CL/F ([13]; High (about 260 mg oral) SD): 10.6 L/h
CL/F ([13]; Low (about 130 mg oral) MD): 10.2 L/h
CL/F ([13]; Low (about 130 mg oral) SD): 10.6 L/h
Compound: CCCCN1C[C@H](O)[C@@H](O)[C@H](O)[C@H]1CO [miglustat, (2R,3R,4R,5S)-1-butyl-2-(hydroxymethyl)piperidine-3,4,5-triol]
effect on unfolded ATB200 protein / active conformation (ATB200): decrease the percentage of unfolded ATB200 protein

CIMPR binding compared with ATB200 rhGAA (CIMPR [1]): significantly less CIMPR binding
rhGAA bound to CIMPR / containing M6P (eluted with M6P) (CIMPR [1]): 27%
rhGAA that did not bind to the CIMPR (GAA activity eluted prior to addition of M6P) (CIMPR [1]): 73%
Compound: Myozyme®: conventional rhGAA product (alglucosidase alfa) marketed by Genzyme

From patent US11441138B2, “Method for selection of high M6P recombinant proteins” (Amicus Therapeutics, Inc., priority 2016, dated 2022)
